Results published in US20100239655A1, “TAURINE-BASED COMPOSITIONS AND THERAPEUTIC METHODS” (priority 2004, published 2010).

Tested on: normal human epidermal keratinocytes
Assay: Protection of keratinocytes from ultraviolet induced cell death (apoptosis)
Assay type: cell-based
Settings: even at micromolar concentrations
Text: This effect is independent from and in addition to, the skin barrier repair and hydrating effects taurine exerts on dermal cells.

In the case of `NCCS(=O)(=O)O` [taurine, Taurine], the “protection from ultraviolet induced cell death (apoptosis)” value is reported as “can protect”.
